How the values were obtained:
[1] = prior art statement; cited from earlier work
[2] = Solubility in solvents (qualitative); conditions: for Löslichkeit im Alkohol: Alkohol (Ethylalkohol)
[3] = Storage stability (qualitative); format: physicochemical; conditions: result in words
[4] = tested on: weißen Mäusen; assay: Acute toxicity in white mice
[5] = Acute toxicity in white mice; conditions: mouse, in vivo, ip
[6] = tested on: Walrotiela subiculesa; assay: Fungicidal activity, inhibition of mycelium growth on wort agar; format: cell-based
Excerpt: (§1) Man prüfte die funguzide Aktivität von Zink-bis-(N-vi- nyloxyethyl)dithiocarbamat gegenüber den reinen Pilzkulturen: Gladosporium resinae, Cladosporium cladosporioides, Acremonium corvum, Acremonium charticola, Penicillium charlesii Smith, Walrotiela subiculesa, Geotrichum candidum Link, Oidium, Penicillium crysogenum. Die genannten Pilze wurden von den Oberflächen der Wände und Decken von Bierbrauereien und Werken für die Herstellung von alkoholfreien Getränken ausgeschieden.
(§2) […] In eine der Petri-Schalen wurde Nährboden mit 1 ml Azeton (Kontrolle) gegossen.
(§3) In 18 bis 20 Stunden nach dem Vergießen des Nährbodens in die Petri-Schalen führte man die Inokulation der reinen Pilzkultur durch, die vorher an einem Schräg-Würzeagar während 15 Tage gezüchtet wurden. Die Inkubation führte man bei einer Temperatur von 25 bis 27°C während 5 Tage durch. Danach wurde der Durchmesser der Pilzkolonien gemessen und der Prozentsatz der Hemmung des Wachstums des Myzeliums (S) nach der Abbott -Formel gezählt: [formula] worin dc Durchmesser der Pilzkolonien in Kontrolle ist, de =Durchmesser der Pilzkolonien in einer Schale mit dem Nährboden ist, der Zink-bis-(N-vinyloxyethyl)dithiocarbamat enthält.

[7] = tested on: Geotrichum candidum Link; assay: as above; format: cell-based
Excerpt: as §1, §2, §3

[8] = tested on: Oidium; assay: as above; format: cell-based
Excerpt: as §1, §2, §3

[9] = tested on: Penicillium charlesii Smith; assay: as above; format: cell-based
Excerpt: as §1, §2, §3

[10] = tested on: Acremonium corvum; assay: as above; format: cell-based
Excerpt: as §1, §2, §3

[11] = tested on: Acremonium charticola; assay: as above; format: cell-based
Excerpt: as §1, §2, §3

[12] = tested on: Penicillium chrysogenum; assay: as above; format: cell-based
Excerpt: as §1, §2, §3

[13] = tested on: Cladosporium resinae; assay: as above; format: cell-based
Excerpt: as §1, §2, §3

[14] = tested on: Cladosporium cladosporioides; assay: as above; format: cell-based
Excerpt: as §1, §2, §3

[15] = tested on: p.Pseudomonas; assay: Bactericidal activity, growth on agar medium; format: cell-based; conditions: 37°C, 5 Tage
Protocol: (§4) Die bakterizide Aktivität des Kalium N-(vinyloxyethyl)-dithiocarbamats gegenüber den Bakterien, die von der Oberfläche von Wänden und Decken der Produktionsräume von Brauereien und Fabriken zur Herstellunq von alkoholfreien Getränken ausgeschieden wurden und die zu p.p.Bacillus, Micrococcus, Pseudomonas, Escherichiae gehören, wurde geprüft.
(§5) Es wurden wäßrige Lösungen des genannten Stoffes verschiedener Konzentration hergestellt, die so berechnet wurde, daß bei Einführung von 1 ml der Lösung in 25 ml geschmolzenen agarisierten Nährboden (45-50°C) die Konzentration des Stoffes im Nährboden von 0,003 bis 0,5% betrug. In 18 bis 24 Stunden wurde auf die Oberfläche des Nährbodens 0,1 ml der wäßrigen Suspension der eintägigen reinen Bakterienkulturen aufgetragen, die am Fleisch-Pepton-Agar gezüchtet wurden. Die Suspension wurde gleichmäßig verteilt. In Kontrollschalen wurden 0,1 ml Wasser auf der Oberfläche des Närhbodens verteilt.
(§6) Die Inkubation führte man bei einer Temperatur von 37°C während 5 Tage durch.
(§7) Die effektive Wirkung des Stoffes wurde nach dem Auftreten des Bakterienwachstums an der Oberfläche des Nährbodens bewertet.

[16] = tested on: p.Bacillus; assay: Bactericidal activity, growth on agar medium; format: cell-based; conditions: 37°C, 5 Tage
Protocol: as §4, §5, §6, §7

[17] = tested on: p. Escherichiae; assay: Bactericidal activity, growth on agar medium; format: cell-based; conditions: 37°C, 5 Tage
Protocol: as §4, §5, §6, §7

[18] = tested on: p.Micrococcus; assay: Bactericidal activity, growth on agar medium; format: cell-based; conditions: 37°C, 5 Tage
Protocol: as §4, §5, §6, §7

[19] = tested on: Schimmelpilzen, die die Bewachsung von Oberflächen hervorrufen; assay: Fungicidal activity, summary over all tested fungi; format: cell-based; conditions: day 5
Excerpt: as §1
Es wurden Lösungen des Zink-bis-(N-vinyloxyethyl)di- thiocarbamats im Azeton verschiedener Konzentration hergestellt, die so berechnet wurde, daß bei der Einführung vor 1 ml Lösung in 10 ml des geschmolzenen Würzeagars (45-50°C) die Konzentration des genannten Stoffes im Medium von 0,0015 bis 0,012% betrug. In eine der Petri-Schalen wurde Nährboden mit 1 ml Azeton (Kontrolle) gegossen.
as §3

[20] = Konzentration des Stoffes 0,0015 %
[21] = Konzentration des Stoffes 0,003 %
[22] = Konzentration des Stoffes 0,006 %
[23] = Konzentration des Stoffes 0,012 %
[24] = Konzentration des Stoffes 0,1 % (0,10)
[25] = Konzentration des Stoffes 0,05 %
[26] = Konzentration des Stoffes 0,15 %

CCCCCCCCn1sccc1=O [2-n-Oktyl-4-isothiazolinon-3]
effektive Konzentration als Biozid für Lack- und Farbstoffe [1]: 0,4 Masse%

C=COCCNC(=S)[S-].[Na+] [Natrium-N-(vinyloxyethyl)dithiocarbamat]
Löslichkeit im Alkohol [2]: teilweise | Löslichkeit im Azeton [2]: teilweise | Löslichkeit im Diethylether [2]: unlöslich | Löslichkeit in Wasser [2]: gut löslich | Lagerbeständigkeit [3]: lagerbeständig | Toxizität für Warmblüter ([4]; result in words): wenig toxisch | LD50 [5]: 260 mg/kg | Hemmung des Myzeliums am 5. Tag des Wachstums, Walrotiela subiculesa [6, 20]: 100% | Hemmung des Myzeliums am 5. Tag des Wachstums, Walrotiela subiculesa [6, 21]: 100% | Hemmung des Myzeliums am 5. Tag des Wachstums, Walrotiela subiculesa [6, 22]: 100% | Hemmung des Myzeliums am 5. Tag des Wachstums, Walrotiela subiculesa [6, 23]: 100% | Hemmung des Myzeliums am 5. Tag des Wachstums, Geotrichum candidum Link [7, 20]: 5% | Hemmung des Myzeliums am 5. Tag des Wachstums, Geotrichum candidum Link [7, 21]: 40% | Hemmung des Myzeliums am 5. Tag des Wachstums, Geotrichum candidum Link [7, 22]: 75% | Hemmung des Myzeliums am 5. Tag des Wachstums, Geotrichum candidum Link [7, 23]: 100% | Hemmung des Myzeliums am 5. Tag des Wachstums, Oidium [8, 20]: 60% | Hemmung des Myzeliums am 5. Tag des Wachstums, Oidium [8, 21]: 100% | Hemmung des Myzeliums am 5. Tag des Wachstums, Oidium [8, 22]: 100% | Hemmung des Myzeliums am 5. Tag des Wachstums, Oidium [8, 23]: 100% | Hemmung des Myzeliums am 5. Tag des Wachstums, Penicillium charlesii Smith [9, 20]: 25% | Hemmung des Myzeliums am 5. Tag des Wachstums, Penicillium charlesii Smith [9, 21]: 40% | Hemmung des Myzeliums am 5. Tag des Wachstums, Penicillium charlesii Smith [9, 22]: 90% | Hemmung des Myzeliums am 5. Tag des Wachstums, Penicillium charlesii Smith [9, 23]: 100% | Hemmung des Myzeliums am 5. Tag des Wachstums, Acremonium corvum [10, 20]: 100% | Hemmung des Myzeliums am 5. Tag des Wachstums, Acremonium corvum [10, 21]: 100% | Hemmung des Myzeliums am 5. Tag des Wachstums, Acremonium corvum [10, 22]: 100% | Hemmung des Myzeliums am 5. Tag des Wachstums, Acremonium corvum [10, 23]: 100% | Hemmung des Myzeliums am 5. Tag des Wachstums, Acremonium charticola [11, 20]: 100% | Hemmung des Myzeliums am 5. Tag des Wachstums, Acremonium charticola [11, 21]: 100% | Hemmung des Myzeliums am 5. Tag des Wachstums, Acremonium charticola [11, 22]: 100% | Hemmung des Myzeliums am 5. Tag des Wachstums, Acremonium charticola [11, 23]: 100% | Hemmung des Myzeliums am 5. Tag des Wachstums, Penicillium chrysogenum [12, 20]: 5% | Hemmung des Myzeliums am 5. Tag des Wachstums, Penicillium chrysogenum [12, 21]: 20% | Hemmung des Myzeliums am 5. Tag des Wachstums, Penicillium chrysogenum [12, 22]: 80% | Hemmung des Myzeliums am 5. Tag des Wachstums, Penicillium chrysogenum [12, 23]: 100% | Hemmung des Myzeliums am 5. Tag des Wachstums, Cladosporium resinae [13, 20]: 100% | Hemmung des Myzeliums am 5. Tag des Wachstums, Cladosporium resinae [13, 21]: 100% | Hemmung des Myzeliums am 5. Tag des Wachstums, Cladosporium resinae [13, 22]: 100% | Hemmung des Myzeliums am 5. Tag des Wachstums, Cladosporium resinae [13, 23]: 100% | Hemmung des Myzeliums am 5. Tag des Wachstums, Cladosporium cladosporioides [14, 20]: 100% | Hemmung des Myzeliums am 5. Tag des Wachstums, Cladosporium cladosporioides [14, 21]: 100% | Hemmung des Myzeliums am 5. Tag des Wachstums, Cladosporium cladosporioides [14, 22]: 100% | Hemmung des Myzeliums am 5. Tag des Wachstums, Cladosporium cladosporioides [14, 23]: 100%

Kupfer-N-(vinyloxyethyl)dithiocarbamat
Löslichkeit im Alkohol [2]: teilweise löslich | Löslichkeit im Azeton [2]: teilweise löslich | Löslichkeit im Diethylether [2]: unlöslich | Löslichkeit im Dimethylsulfoxid ([2]; Dimethylsulfoxid): gut | Löslichkeit in Wasser [2]: unlöslich | Lagerbeständigkeit [3]: lagerbeständig | Konzentration der Salze der N-(vinyloxyethyl)dithiocarbaminsäure (100%), die das Wachstum der Bakterien am 5. Tag des Wachstums hemmen, p.Pseudomonas [15]: 0,25% | Konzentration der Salze der N-(vinyloxyethyl)dithiocarbaminsäure (100%), die das Wachstum der Bakterien am 5. Tag des Wachstums hemmen, p.Bacillus [16]: 0,25% | Konzentration der Salze der N-(vinyloxyethyl)dithiocarbaminsäure (100%), die das Wachstum der Bakterien am 5. Tag des Wachstums hemmen, p. Escherichiae [17]: 0,25% | Konzentration der Salze der N-(vinyloxyethyl)dithiocarbaminsäure (100%), die das Wachstum der Bakterien am 5. Tag des Wachstums hemmen, p.Micrococcus [18]: 0,25% | Konzentration, bei der die Entwicklung aller untersuchten Pilze vollständig gehemmt wurde [19]: 0,15% | LD50 ([4]; intraabdominale Einführung bei weißen Mäusen): 267 mg/kg | Hemmung des Myzeliums am 5. Tag des Wachstums, Walrotiela subiculesa [6, 24]: 100% | Hemmung des Myzeliums am 5. Tag des Wachstums, Walrotiela subiculesa [6, 25]: 30% | Hemmung des Myzeliums am 5. Tag des Wachstums, Walrotiela subiculesa [6, 26]: 100% | Hemmung des Myzeliums am 5. Tag des Wachstums, Geotrichum candidum Link [7, 24]: 50% | Hemmung des Myzeliums am 5. Tag des Wachstums, Geotrichum candidum Link [7, 25]: 3% | Hemmung des Myzeliums am 5. Tag des Wachstums, Geotrichum candidum Link [7, 26]: 100% | Hemmung des Myzeliums am 5. Tag des Wachstums, Oidium ([8]; Konzentration des Stoffes 0,1 %): 67% | Hemmung des Myzeliums am 5. Tag des Wachstums, Oidium [8, 25]: 0% | Hemmung des Myzeliums am 5. Tag des Wachstums, Oidium [8, 26]: 100% | Hemmung des Myzeliums am 5. Tag des Wachstums, Penicillium charlesii Smith [9, 24]: 56% | Hemmung des Myzeliums am 5. Tag des Wachstums, Penicillium charlesii Smith [9, 25]: 24% | Hemmung des Myzeliums am 5. Tag des Wachstums, Penicillium charlesii Smith [9, 26]: 92% | Hemmung des Myzeliums am 5. Tag des Wachstums, Acremonium corvum [10, 24]: 100% | Hemmung des Myzeliums am 5. Tag des Wachstums, Acremonium corvum [10, 25]: 50% | Hemmung des Myzeliums am 5. Tag des Wachstums, Acremonium corvum [10, 26]: 100% | Hemmung des Myzeliums am 5. Tag des Wachstums, Acremonium charticola [11, 24]: 100% | Hemmung des Myzeliums am 5. Tag des Wachstums, Acremonium charticola [11, 25]: 43% | Hemmung des Myzeliums am 5. Tag des Wachstums, Acremonium charticola [11, 26]: 100% | Hemmung des Myzeliums am 5. Tag des Wachstums, Penicillium chrysogenum [12, 24]: 24% | Hemmung des Myzeliums am 5. Tag des Wachstums, Penicillium chrysogenum [12, 25]: 4% | Hemmung des Myzeliums am 5. Tag des Wachstums, Penicillium chrysogenum [12, 26]: 85% | Hemmung des Myzeliums am 5. Tag des Wachstums, Cladosporium resinae [13, 24]: 43% | Hemmung des Myzeliums am 5. Tag des Wachstums, Cladosporium resinae [13, 25]: 34% | Hemmung des Myzeliums am 5. Tag des Wachstums, Cladosporium resinae [13, 26]: 100% | Hemmung des Myzeliums am 5. Tag des Wachstums, Cladosporium cladosporioides [14, 24]: 100% | Hemmung des Myzeliums am 5. Tag des Wachstums, Cladosporium cladosporioides [14, 25]: 45% | Hemmung des Myzeliums am 5. Tag des Wachstums, Cladosporium cladosporioides [14, 26]: 100%

— EP0256125A1, “MEANS FOR PREVENTING MICROBIOLOGICAL OVERGROWING OF HARD SURFACE” (priority 1985, dated 1987)
